Results from BindingDB's records for doi:10.1021/jm200288r (National Institute On Drug Abuse-Intramural Research Program, 2011).

Assay: Antagonist activity at human dopamine D2 receptor expressed in CHOp cells assessed as inhibition of quinpirole-induced mitogenesis

IC50 [nM]	Structure (SMILES)
421	COc1ccccc1N1CCN(CC(F)CCNC(=O)c2cc3ccccc3s2)CC1 (configuration not stated) [N-(3-Fluoro-4-(4-(2-methoxyphenyl)piperazin-1-yl)butyl)-benzo[b]thiophene-2-carboxamide]
1600	COc1ccc2oc(C(=O)NCCC(F)CN3CCN(c4cccc(Cl)c4Cl)CC3)cc2c1 (configuration not stated) [N-(4-(4-(2,3-Dichlorophenyl)piperazin-1-yl)-3-fluorobutyl)-5-methoxybenzofuran-2-carboxamide]
